According to patent publication US5098933A, “Pharmaceutically useful Michael addition products of unsaturated aldehydes and ketones and ascorbic acid” (Theracel Corporation, priority 1990, dated 1992):

Columns and labels:
[1] = test system: CD-1 male mice; experiment: Oral Toxicity, single high dose in mice; type: in vivo; conditions: 5000 mg/kg p.o., 14 days
Protocol: The objective of this experiment was to observe the clinical effects associated with the peroral administration of a single high dose of KCPBL to mice.
The test animals were CD-1 male mice.
Nine animals constituted the active peroral treatment group; eight animals were used in the vehicle control group.
Each mouse received a single 0.2 ml peroral (p.o.) dose using a 1.0 cc syringe fitted with a curved gavage needle.
Survival statistics were determined after the fourteenth day. All surviving mice were sacrificed on the fifteenth day, selected organs removed and weighed on a AE 100 Mettler balance and then fixed in formalin for histopathologic examination.

[2] = test system: IgM plaque-forming cells to sheep erythrocytes; experiment: Immunomodulation panel: IgM plaque-forming response to SRBC; type: in vivo, C57BL/6J mice; design: Anti-SRBC Plaque Forming Cells: unit not given here
Protocol: Daily intraperitoneal injections of KCPBL were administered to normal animals and immunological responsiveness to mitogens and specific antigen evaluated.
Inbred C57BL/6J mice were obtained from Jackson Laboratories, Bar Harbor, Me. The animals were held for one week before use in an experiment. Prior to commencement of a study, the animals were placed into groups and weighed.
Doses and schedule--Doses were selected to bracket the range generally known to be immunostimulatory in past experiments, 1, 10, and […] daily for four days.
Immunization--All animals except for sham controls were injected with 0.5 ml of a 2% suspension of sheep erythrocyte on day zero. This occurred two days following any pretreatment and the day before the initiation of study drug administration.
Sacrifice--Animals were sacrificed by cervical dislocation on day five. The spleens were surgically removed and the following immunological evaluations conducted.
As an assessment of immunopathology in the above screening test panel, the cellularity of the spleen was evaluated by determination of the total number of splenocytes harvested. Humoral-mediated immunity was measured by enumerating IgM plaque-forming cells to the T-dependent antigen sheep erythrocytes. Cell-mediated immunity was evaluated as described above by determination of the ability of the splenocytes to produce the lymphokine interleukin-2 in response to stimulation by the mitogen concanavalin-A. Another measurement of cell-mediated immunity was the responsiveness of the splenic lymphocytes to the mitogens concanavalin-A (Con-A); phytohemagglutinin (PHA) and pokeweed mitogen (PWM) in the lymphocyte blastogenesis assay. In the latter test, the activation and proliferation of the lymphocytes to the mitogens represents the capability of the cells to sequentially pass from G0 to G1 and the S phse of the cell cycle. The responsiveness of the cells was measured by the uptake of radiolabeled 14C-thymidine.

O=C1CCC(C2(O)C(=O)OC3C(O)COC32O)C1 (centres unmarked) [KCPBL]
deaths [1]: One mouse in the KCPBL group died on the 12th day
deaths ([1]; listed as BL-012): Only one animal died
PFC increase, significance ([2]; 1 mg/kg): values higher than the control group but the difference was not statistically significant
Anti-SRBC Plaque Forming Cells ([2]; 1.0 mg/kg i.p.): 192.8 ± 59.
PFC increase, significance ([2]; 100 and 10 mg/kg): A significant increase in PFC
